Legend:
Assay in all cases: Kinase panel (Carna)
Type in all cases: biochemical
MAPKAPK2 = biological target: T1, MAPKAPK2 (Homo sapiens, UniProt P49137)
T1 construct: purchased Carna Biosciences

TNK1 = biological target: T2, TNK1 (Homo sapiens, UniProt Q13470)
T2 construct: purchased Carna Biosciences
Excerpt: (§1) Detailed information on the assay conditions is available on the website of Carna Biosciences (http://www.carnabio.com).

PKACγ = biological target: T3, PKACγ (Homo sapiens, UniProt P22612)
T3 construct: purchased Carna Biosciences

MET = biological target: T4, MET (Homo sapiens, UniProt P08581)
T4 construct: purchased Carna Biosciences
Excerpt: as §1

EPHA3 = biological target: T5, EPHA3 (Homo sapiens, UniProt P29320)
T5 construct: purchased Carna Biosciences

ACK = biological target: T6, ACK (Homo sapiens, UniProt Q07912)
T6 construct: purchased Carna Biosciences
Excerpt: as §1

PLK1 = biological target: T7, PLK1 (Homo sapiens, UniProt P53350)
T7 construct: purchased Carna Biosciences

TBK1 = biological target: T8, TBK1 (Homo sapiens, UniProt Q9UHD2)
T8 construct: purchased Carna Biosciences
Excerpt: as §1

SPHK1 = biological target: T9, SPHK1 (Homo sapiens, UniProt Q9NYA1)
T9 construct: purchased Carna Biosciences
Excerpt: as §1

MSK1 = biological target: T10, MSK1 (Homo sapiens, UniProt O75582)
T10 construct: purchased Carna Biosciences
Excerpt: as §1

NEK6 = biological target: T11, NEK6 (Homo sapiens, UniProt Q9HC98)
T11 construct: purchased Carna Biosciences

NEK9 = biological target: T12, NEK9 (Homo sapiens, UniProt Q8TD19)
T12 construct: purchased Carna Biosciences
T12 sequence (Q8TD19 whole entry): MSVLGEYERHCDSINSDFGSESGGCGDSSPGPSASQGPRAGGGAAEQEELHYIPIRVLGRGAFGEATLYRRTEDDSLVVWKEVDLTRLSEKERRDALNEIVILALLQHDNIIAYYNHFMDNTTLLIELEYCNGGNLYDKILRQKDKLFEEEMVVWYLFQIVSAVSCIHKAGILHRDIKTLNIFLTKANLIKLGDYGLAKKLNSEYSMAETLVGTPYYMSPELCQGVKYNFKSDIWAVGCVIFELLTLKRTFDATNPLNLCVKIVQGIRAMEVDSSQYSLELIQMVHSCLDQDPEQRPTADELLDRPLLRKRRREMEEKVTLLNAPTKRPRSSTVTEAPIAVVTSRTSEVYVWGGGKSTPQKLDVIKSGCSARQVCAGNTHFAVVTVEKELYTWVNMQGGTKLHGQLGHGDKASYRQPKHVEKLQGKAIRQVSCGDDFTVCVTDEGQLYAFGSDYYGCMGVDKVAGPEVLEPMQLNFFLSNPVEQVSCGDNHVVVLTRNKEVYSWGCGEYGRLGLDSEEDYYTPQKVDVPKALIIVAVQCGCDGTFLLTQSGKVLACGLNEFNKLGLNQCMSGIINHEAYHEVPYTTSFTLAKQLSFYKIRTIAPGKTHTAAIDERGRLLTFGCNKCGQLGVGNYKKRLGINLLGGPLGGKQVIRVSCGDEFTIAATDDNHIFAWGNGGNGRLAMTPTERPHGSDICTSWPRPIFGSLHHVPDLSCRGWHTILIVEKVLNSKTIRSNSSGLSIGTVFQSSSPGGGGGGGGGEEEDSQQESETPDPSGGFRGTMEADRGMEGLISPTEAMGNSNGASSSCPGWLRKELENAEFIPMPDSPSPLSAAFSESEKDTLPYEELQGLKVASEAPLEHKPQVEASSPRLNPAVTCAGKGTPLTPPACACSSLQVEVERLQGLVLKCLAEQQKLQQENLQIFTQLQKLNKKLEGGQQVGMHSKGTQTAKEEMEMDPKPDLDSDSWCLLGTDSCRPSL

FGFR2 = biological target: T13, FGFR2 (Homo sapiens, UniProt P21802)
T13 construct: purchased Carna Biosciences

KIT = biological target: T14, KIT (Homo sapiens, UniProt P10721)
T14 construct: purchased Carna Biosciences
Excerpt: as §1

HER2 = biological target: T15, HER2 (Homo sapiens, UniProt P04626)
T15 construct: purchased Carna Biosciences
Excerpt: as §1

p38β = biological target: T16, p38β (Homo sapiens, UniProt Q15759)
T16 construct: purchased Carna Biosciences
Excerpt: as §1

MER = biological target: T17, MER (Homo sapiens, UniProt Q12866)
T17 construct: purchased Carna Biosciences
Excerpt: as §1

RET = biological target: T18, RET (Homo sapiens, UniProt P07949)
T18 construct: purchased Carna Biosciences
T18 sequence (P07949 29-1114): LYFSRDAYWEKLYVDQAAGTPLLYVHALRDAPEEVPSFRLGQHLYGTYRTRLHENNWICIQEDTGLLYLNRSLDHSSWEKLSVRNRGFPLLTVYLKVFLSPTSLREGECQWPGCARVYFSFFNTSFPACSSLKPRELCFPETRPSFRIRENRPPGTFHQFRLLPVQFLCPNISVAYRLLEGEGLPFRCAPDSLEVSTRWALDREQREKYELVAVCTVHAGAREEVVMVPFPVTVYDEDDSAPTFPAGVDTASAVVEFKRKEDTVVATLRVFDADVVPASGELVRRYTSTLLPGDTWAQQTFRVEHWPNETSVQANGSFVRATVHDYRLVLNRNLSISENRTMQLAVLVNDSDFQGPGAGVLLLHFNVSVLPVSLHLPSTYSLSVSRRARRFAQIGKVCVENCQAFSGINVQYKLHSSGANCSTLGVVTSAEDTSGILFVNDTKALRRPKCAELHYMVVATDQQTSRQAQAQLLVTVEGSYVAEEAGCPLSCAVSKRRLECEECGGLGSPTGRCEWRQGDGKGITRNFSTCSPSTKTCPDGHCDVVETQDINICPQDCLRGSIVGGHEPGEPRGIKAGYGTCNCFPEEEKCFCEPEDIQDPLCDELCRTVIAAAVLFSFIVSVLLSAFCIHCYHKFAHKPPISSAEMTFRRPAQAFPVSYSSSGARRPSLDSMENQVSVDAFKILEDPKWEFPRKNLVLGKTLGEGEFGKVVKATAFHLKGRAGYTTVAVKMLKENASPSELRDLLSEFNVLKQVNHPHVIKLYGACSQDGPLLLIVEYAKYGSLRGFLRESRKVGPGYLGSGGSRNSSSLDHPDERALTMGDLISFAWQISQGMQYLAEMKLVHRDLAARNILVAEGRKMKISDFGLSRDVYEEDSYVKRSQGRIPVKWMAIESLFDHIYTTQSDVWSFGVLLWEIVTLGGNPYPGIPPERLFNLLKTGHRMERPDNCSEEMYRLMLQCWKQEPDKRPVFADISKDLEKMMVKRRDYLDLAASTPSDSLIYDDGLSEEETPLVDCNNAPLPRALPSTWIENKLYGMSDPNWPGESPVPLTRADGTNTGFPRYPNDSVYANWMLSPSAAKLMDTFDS
Excerpt: as §1

EPHA7 = biological target: T19, EPHA7 (Homo sapiens, UniProt Q15375)
T19 construct: purchased Carna Biosciences

MAP2K6_Cascade = biological target: T20, MAP2K6_Cascade (Homo sapiens, UniProt P52564)
T20 construct: purchased Carna Biosciences

TIE2 = biological target: T21, TIE2 (Homo sapiens, UniProt Q02763)
T21 construct: purchased Carna Biosciences
Excerpt: as §1

CK1γ1 = biological target: T22, CK1γ1 (Homo sapiens, UniProt Q9HCP0)
T22 construct: purchased Carna Biosciences

NEK7 = biological target: T23, NEK7 (Homo sapiens, UniProt Q8TDX7)
T23 construct: purchased Carna Biosciences

DAPK1 = biological target: T24, DAPK1 (Homo sapiens, UniProt P53355)
T24 construct: purchased Carna Biosciences
Excerpt: as §1

FRK = biological target: T25, FRK (Homo sapiens, UniProt P42685)
T25 construct: purchased Carna Biosciences
Excerpt: as §1

DCAMKL2 = biological target: T26, DCAMKL2 (Homo sapiens, UniProt Q8N568)
T26 construct: purchased Carna Biosciences
Excerpt: as §1

EPHA2 = biological target: T27, EPHA2 (Homo sapiens, UniProt P29317)
T27 construct: purchased Carna Biosciences
T27 sequence (P29317 24-976): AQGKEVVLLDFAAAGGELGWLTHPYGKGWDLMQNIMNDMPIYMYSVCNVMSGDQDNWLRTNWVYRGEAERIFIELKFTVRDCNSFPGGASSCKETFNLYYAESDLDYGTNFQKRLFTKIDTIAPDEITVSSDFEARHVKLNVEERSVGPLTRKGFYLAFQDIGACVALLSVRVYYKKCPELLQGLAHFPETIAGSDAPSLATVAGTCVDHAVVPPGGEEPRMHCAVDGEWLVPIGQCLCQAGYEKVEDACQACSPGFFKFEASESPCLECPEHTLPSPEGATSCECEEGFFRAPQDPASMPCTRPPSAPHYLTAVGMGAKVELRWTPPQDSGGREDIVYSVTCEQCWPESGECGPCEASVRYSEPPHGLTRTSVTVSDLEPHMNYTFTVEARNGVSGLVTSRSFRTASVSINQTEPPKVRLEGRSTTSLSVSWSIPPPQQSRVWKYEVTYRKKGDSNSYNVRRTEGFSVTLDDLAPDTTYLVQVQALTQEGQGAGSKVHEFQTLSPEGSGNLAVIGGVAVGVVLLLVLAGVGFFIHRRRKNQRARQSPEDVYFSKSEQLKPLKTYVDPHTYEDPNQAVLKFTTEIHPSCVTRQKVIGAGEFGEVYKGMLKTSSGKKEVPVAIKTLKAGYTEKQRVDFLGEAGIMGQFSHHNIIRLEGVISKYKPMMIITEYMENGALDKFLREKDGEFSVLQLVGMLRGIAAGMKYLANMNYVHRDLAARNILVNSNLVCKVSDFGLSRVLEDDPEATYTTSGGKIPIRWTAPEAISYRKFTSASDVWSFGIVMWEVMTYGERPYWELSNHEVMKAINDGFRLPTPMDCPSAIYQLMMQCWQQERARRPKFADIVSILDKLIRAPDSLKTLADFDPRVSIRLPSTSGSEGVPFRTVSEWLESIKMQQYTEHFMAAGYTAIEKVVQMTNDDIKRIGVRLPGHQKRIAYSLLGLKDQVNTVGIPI

LTK = biological target: T28, LTK (Homo sapiens, UniProt P29376)
T28 construct: purchased Carna Biosciences
Excerpt: as §1

JAK1 = biological target: T29, JAK1 (Homo sapiens, UniProt P23458)
T29 construct: purchased Carna Biosciences
Excerpt: as §1

AurB = biological target: T30, AurB (Homo sapiens, UniProt Q96GD4)
T30 construct: purchased Carna Biosciences
Excerpt: as §1

MST4 = biological target: T31, MST4 (Homo sapiens, UniProt Q9P289)
T31 construct: purchased Carna Biosciences
Excerpt: as §1

PKCδ = biological target: T32, PKCδ (Homo sapiens, UniProt Q05655)
T32 construct: purchased Carna Biosciences
Excerpt: as §1

p38α = biological target: T33, p38α (Homo sapiens, UniProt Q16539)
T33 construct: purchased Carna Biosciences
Excerpt: as §1

ROS = biological target: T34, ROS (Homo sapiens, UniProt P08922)
T34 construct: purchased Carna Biosciences
Excerpt: as §1

PHKG2 = biological target: T35, PHKG2 (Homo sapiens, UniProt P15735)
T35 construct: purchased Carna Biosciences
Excerpt: as §1

MARK2 = biological target: T36, MARK2 (Homo sapiens, UniProt Q7KZI7)
T36 construct: purchased Carna Biosciences
Excerpt: as §1

MAP2K4_Cascade = biological target: T37, MAP2K4_Cascade (Homo sapiens, UniProt P45985)
T37 construct: purchased Carna Biosciences

PKN1 = biological target: T38, PKN1 (Homo sapiens, UniProt Q16512)
T38 construct: purchased Carna Biosciences
T38 sequence (Q16512 whole entry): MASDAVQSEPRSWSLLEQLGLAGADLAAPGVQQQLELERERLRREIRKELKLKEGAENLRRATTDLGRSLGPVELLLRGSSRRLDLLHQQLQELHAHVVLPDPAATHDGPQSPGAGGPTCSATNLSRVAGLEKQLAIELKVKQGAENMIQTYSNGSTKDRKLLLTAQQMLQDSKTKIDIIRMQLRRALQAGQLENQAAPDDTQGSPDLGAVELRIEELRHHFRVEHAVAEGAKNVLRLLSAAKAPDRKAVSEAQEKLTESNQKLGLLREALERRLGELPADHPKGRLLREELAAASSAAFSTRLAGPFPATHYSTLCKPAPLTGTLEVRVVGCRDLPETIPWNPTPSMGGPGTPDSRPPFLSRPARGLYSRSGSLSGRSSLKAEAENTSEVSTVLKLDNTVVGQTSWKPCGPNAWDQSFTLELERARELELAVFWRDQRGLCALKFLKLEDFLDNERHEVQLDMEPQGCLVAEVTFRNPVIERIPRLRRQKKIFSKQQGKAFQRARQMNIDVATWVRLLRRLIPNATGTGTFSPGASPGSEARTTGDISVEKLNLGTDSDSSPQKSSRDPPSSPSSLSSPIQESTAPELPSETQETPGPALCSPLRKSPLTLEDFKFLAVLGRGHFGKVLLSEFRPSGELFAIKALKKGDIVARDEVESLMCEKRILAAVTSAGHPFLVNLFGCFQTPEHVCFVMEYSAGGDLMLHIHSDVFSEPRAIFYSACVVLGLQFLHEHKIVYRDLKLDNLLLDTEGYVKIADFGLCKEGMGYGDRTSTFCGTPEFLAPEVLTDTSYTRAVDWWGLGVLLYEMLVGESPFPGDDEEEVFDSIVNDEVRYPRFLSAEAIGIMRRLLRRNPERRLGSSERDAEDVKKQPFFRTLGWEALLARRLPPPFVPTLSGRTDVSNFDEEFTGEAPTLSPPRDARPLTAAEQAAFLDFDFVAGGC

EPHA8 = biological target: T39, EPHA8 (Homo sapiens, UniProt P29322)
T39 construct: purchased Carna Biosciences
Excerpt: as §1

CaMK1α = biological target: T40, CaMK1α (Homo sapiens, UniProt Q14012)
T40 construct: purchased Carna Biosciences
Excerpt: as §1

PKD2 = biological target: T41, PKD2 (Homo sapiens, UniProt Q9BZL6)
T41 construct: purchased Carna Biosciences
Excerpt: as §1

PKCζ = biological target: T42, PKCζ (Homo sapiens, UniProt Q05513)
T42 construct: purchased Carna Biosciences
Excerpt: as §1

PKD1 = biological target: T43, PKD1 (Homo sapiens, UniProt Q15139)
T43 construct: purchased Carna Biosciences
T43 sequence (Q15139 whole entry): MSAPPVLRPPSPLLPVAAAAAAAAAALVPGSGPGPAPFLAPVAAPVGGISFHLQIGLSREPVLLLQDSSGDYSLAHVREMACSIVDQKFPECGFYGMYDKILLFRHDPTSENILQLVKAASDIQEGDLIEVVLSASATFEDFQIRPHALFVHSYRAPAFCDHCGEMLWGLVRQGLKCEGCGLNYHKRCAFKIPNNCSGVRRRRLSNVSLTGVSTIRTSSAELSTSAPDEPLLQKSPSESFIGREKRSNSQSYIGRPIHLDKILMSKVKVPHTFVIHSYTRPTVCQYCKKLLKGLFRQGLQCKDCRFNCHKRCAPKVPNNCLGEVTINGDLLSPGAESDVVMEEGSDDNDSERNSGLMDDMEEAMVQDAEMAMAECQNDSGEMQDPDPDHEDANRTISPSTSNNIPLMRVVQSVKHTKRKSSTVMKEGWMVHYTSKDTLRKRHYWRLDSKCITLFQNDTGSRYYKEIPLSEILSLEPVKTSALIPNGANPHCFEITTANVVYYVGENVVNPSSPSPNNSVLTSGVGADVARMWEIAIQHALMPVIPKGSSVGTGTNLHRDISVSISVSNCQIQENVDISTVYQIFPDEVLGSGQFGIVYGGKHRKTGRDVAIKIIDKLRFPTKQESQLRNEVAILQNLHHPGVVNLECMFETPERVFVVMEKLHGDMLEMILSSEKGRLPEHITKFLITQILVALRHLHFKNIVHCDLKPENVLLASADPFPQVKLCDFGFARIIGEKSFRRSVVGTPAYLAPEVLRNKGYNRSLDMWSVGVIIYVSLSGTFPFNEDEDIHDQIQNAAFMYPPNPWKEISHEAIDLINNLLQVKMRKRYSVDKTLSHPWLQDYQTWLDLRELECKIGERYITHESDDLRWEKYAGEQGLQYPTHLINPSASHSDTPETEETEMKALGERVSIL
Excerpt: as §1

NDR1 = biological target: T44, NDR1 (Homo sapiens, UniProt Q15208)
T44 construct: purchased Carna Biosciences
Excerpt: as §1

FLT3 = biological target: T45, FLT3 (Homo sapiens, UniProt P36888)
T45 construct: purchased Carna Biosciences
Excerpt: as §1

COc1ccc(/C=C2\SC(=S)NC2=O)cc1C#C[Si](C)(C)C [FINDY]
inhibition at 10 µM (MAPKAPK2): 51.9% | inhibition at 10 µM (TNK1): 7.3% | inhibition at 10 µM (PKACγ): 17.8% | inhibition at 10 µM (MET): 12.4% | inhibition at 10 µM (EPHA3): 20.8% | inhibition at 10 µM (ACK): -2.2% | inhibition at 10 µM (PLK1): 23.7% | inhibition at 10 µM (TBK1): 4% | inhibition at 10 µM (SPHK1): 51.2% | inhibition at 10 µM (MSK1): 3.8% | inhibition at 10 µM (NEK6): 23.6% | inhibition at 10 µM (NEK9): -3.3% | inhibition at 10 µM (FGFR2): 19.7% | inhibition at 10 µM (KIT): 2.9% | inhibition at 10 µM (HER2): -0.1% | inhibition at 10 µM (p38β): 11.2% | inhibition at 10 µM (MER): 3.4% | inhibition at 10 µM (RET): 12.6% | inhibition at 10 µM (EPHA7): 18.7% | inhibition at 10 µM (MAP2K6_Cascade): 23.5% | inhibition at 10 µM (TIE2): 55.7% | inhibition at 10 µM (CK1γ1): 19.9% | inhibition at 10 µM (NEK7): -12.3% | inhibition at 10 µM (DAPK1): 14.8% | inhibition at 10 µM (FRK): 8.4% | inhibition at 10 µM (DCAMKL2): -3.8% | inhibition at 10 µM (EPHA2): 16.3% | inhibition at 10 µM (LTK): 4.6% | inhibition at 10 µM (JAK1): 5.7% | inhibition at 10 µM (AurB): 35.7% | inhibition at 10 µM (MST4): 16.7% | inhibition at 10 µM (PKCδ): -1.3% | inhibition at 10 µM (p38α): 10.6% | inhibition at 10 µM (ROS): 0.3% | inhibition at 10 µM (PHKG2): 1.9% | inhibition at 10 µM (MARK2): 60.8% | inhibition at 10 µM (MAP2K4_Cascade): 6.4% | inhibition at 10 µM (PKN1): -0.9% | inhibition at 10 µM (EPHA8): 48.8% | inhibition at 10 µM (CaMK1α): -4.1% | inhibition at 10 µM (PKD2): 29.9% | inhibition at 10 µM (PKCζ): -6.1% | inhibition at 10 µM (PKD1): 11.8% | inhibition at 10 µM (NDR1): 3.8% | inhibition at 10 µM (FLT3): 16%

From article PMC4844702, “Selective inhibition of the kinase DYRK1A by targeting its folding process” (Nature Communications, 2016)
